This note sets out measurements from PubChem BioAssay (NCI).

Test systems include M14 melanoma; M19-MEL melanoma; HOP-92 NSCLC; U251 CNS; SK-OV-3 ovarian; LXFL 529 NSCLC; COLO 205 colon; OVCAR-5 ovarian; HOP-62 NSCLC.
What all share (experiment): DTP human tumour cell line panel, 48 h

In general, TGI refers to the concentration giving total growth inhibition.

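Compound exposure: 48 hours, 5 concentrations, 96-well plates. At the TGI there is no net growth.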

In the case of `CC1C[C@H](OC(N)=O)C(C)CC1=O` (stereo not given in full), the TGI in the experiment on M14 melanoma, in the experiment on M19-MEL melanoma, with HOP-92 NSCLC, with U251 CNS, in the experiment with SK-OV-3 ovarian and in the experiment with LXFL 529 NSCLC was above 100 µM in each case. Also, the TGI in the experiment on COLO 205 colon, in the experiment with OVCAR-5 ovarian and in the experiment with HOP-62 NSCLC was above 100 µM throughout.
Regarding `COC1(OC)CC2C=C(S(=O)(=O)c3ccccc3)C1N(Cc1ccccc1)C2=O` (stereo not given), the TGI with M14 melanoma was 67.1 µM; in the experiment with M19-MEL melanoma it was above 100 µM; with HOP-92 NSCLC, 95.5 µM; with U251 CNS it was above 100 µM; in the experiment on SK-OV-3 ovarian it was above 100 µM; in the experiment on LXFL 529 NSCLC, 44.9 µM. Moreover, the values for the TGI in the experiment on COLO 205 colon and in the experiment on HOP-62 NSCLC were 43.4 µM and above 100 µM, respectively.
For `CC(C)c1ccccc1NC(=O)C(=O)Cc1nc2ccccc2s1`, the TGI in the experiment on M14 melanoma, in the experiment on M19-MEL melanoma, in the experiment on HOP-92 NSCLC, in the experiment on U251 CNS, in the experiment with SK-OV-3 ovarian and in the experiment on LXFL 529 NSCLC was above 100 µM each time. In addition, the TGI in the experiment on COLO 205 colon and in the experiment with HOP-62 NSCLC was above 100 µM each time.
On to `Brc1ccc(-c2nnc(-c3nn(-c4ccccc4)c4nc5ccccc5nc34)o2)cc1`, for which the TGI with M14 melanoma, in the experiment with HOP-92 NSCLC, in the experiment with U251 CNS, in the experiment on SK-OV-3 ovarian, in the experiment with LXFL 529 NSCLC and in the experiment with COLO 205 colon was above 100 µM throughout. Also, the concentration for total growth inhibition (TGI) in the experiment on OVCAR-5 ovarian and in the experiment with HOP-62 NSCLC was above 100 µM in each case.
In the case of `Cc1ccc(NC(=O)c2cccc([N+](=O)[O-])c2O)c([N+](=O)[O-])c1`, the TGI came out at 30.9 µM with M14 melanoma; 27.6 µM with M19-MEL melanoma; 45.4 µM with HOP-92 NSCLC; 38.9 µM with U251 CNS; 57.8 µM in the experiment with SK-OV-3 ovarian; 27.9 µM in the experiment with LXFL 529 NSCLC. For the same compound, the concentration for total growth inhibition (TGI) with COLO 205 colon is 38.6 µM; in the experiment with OVCAR-5 ovarian, 39.4 µM; with HOP-62 NSCLC, 37.6 µM.
Consider `Cc1ccc(NC(=O)NC(=O)c2ccc([N+](=O)[O-])cc2[N+](=O)[O-])cc1Oc1ncc(Cl)cn1`, for which the TGI was 11.3 µM in the experiment on M14 melanoma; 21.7 µM in the experiment with M19-MEL melanoma; 3.83 µM in the experiment with U251 CNS; 25.7 µM with SK-OV-3 ovarian; 11.1 µM in the experiment on LXFL 529 NSCLC; 5.9 µM in the experiment on COLO 205 colon. Also, the TGI in the experiment on HOP-62 NSCLC worked out at 12.5 µM.
For the compound `O=C(CC1(O)C(=O)Nc2ccccc21)c1ccccc1Cl` (stereo not given), the TGI in the experiment on M14 melanoma, in the experiment on M19-MEL melanoma, in the experiment on HOP-92 NSCLC, in the experiment on SK-OV-3 ovarian, in the experiment on LXFL 529 NSCLC and in the experiment on COLO 205 colon was above 100 µM each time. Besides, the TGI in the experiment with OVCAR-5 ovarian is above 100 µM.
In the case of `CCOC(=O)C(=O)Nc1ccc(C)cc1C`, the concentration for total growth inhibition (TGI) in the experiment with M14 melanoma, in the experiment on M19-MEL melanoma, with HOP-92 NSCLC, in the experiment on U251 CNS, in the experiment with SK-OV-3 ovarian and with LXFL 529 NSCLC was above 100 µM in each case. Besides, the total growth inhibition concentration (TGI) with COLO 205 colon, with OVCAR-5 ovarian and with HOP-62 NSCLC was above 100 µM each time.
For `CCn1cc(/C=C/C(C)c2cn(CC)c(=O)[nH]c2=O)c(=O)[nH]c1=O` (stereo not given), the TGI in the experiment on M14 melanoma, in the experiment with M19-MEL melanoma, with HOP-92 NSCLC, in the experiment with U251 CNS, with SK-OV-3 ovarian and with LXFL 529 NSCLC was above 100 µM in each case. For the same compound, the TGI with COLO 205 colon, with OVCAR-5 ovarian and with HOP-62 NSCLC was above 100 µM each time.
Turning to `CC1=CC(=O)CCC2(C)C1CC[C@@H]2OC=O` (stereo not given in full), the TGI with M14 melanoma, in the experiment on M19-MEL melanoma, with HOP-92 NSCLC, with U251 CNS, in the experiment on SK-OV-3 ovarian and in the experiment with LXFL 529 NSCLC was above 100 µM each time. The TGI with COLO 205 colon, in the experiment on OVCAR-5 ovarian and in the experiment with HOP-62 NSCLC was above 100 µM each time.
Consider `N/N=C1\C(=O)N(C2CCCCC2)C(=O)C1C(=O)NC1CCCCC1` (stereo not given), for which the TGI in the experiment with M14 melanoma, in the experiment on M19-MEL melanoma, in the experiment with HOP-92 NSCLC, in the experiment with U251 CNS, in the experiment with SK-OV-3 ovarian and with LXFL 529 NSCLC was above 100 µM in each case. Moreover, the TGI with COLO 205 colon, in the experiment with OVCAR-5 ovarian and in the experiment on HOP-62 NSCLC was above 100 µM each time.
Turning to `CCOC(=O)N1CCc2cc(OC)c(OC)c3c2C1CC3=O` (stereo not given), the TGI with M14 melanoma, in the experiment with M19-MEL melanoma, with HOP-92 NSCLC, in the experiment on U251 CNS, with SK-OV-3 ovarian and in the experiment on LXFL 529 NSCLC was above 100 µM each time. For the same compound, the TGI in the experiment with COLO 205 colon, in the experiment on OVCAR-5 ovarian and in the experiment with HOP-62 NSCLC was above 100 µM each time.
Regarding `COc1ccc(/C(=N/NC(=O)NN)C(c2ccc(OC)cc2)C2(O)CNc3c(Cl)cc(Cl)cc32)cc1` (stereo not given), the TGI with M14 melanoma, in the experiment with M19-MEL melanoma, with HOP-92 NSCLC, with U251 CNS, with SK-OV-3 ovarian and in the experiment with LXFL 529 NSCLC was above 100 µM each time. Besides, the TGI in the experiment on COLO 205 colon, in the experiment on OVCAR-5 ovarian and in the experiment on HOP-62 NSCLC was above 100 µM throughout.
On to `COc1ccc(C2=NNC(=O)OC2c2ccccc2)cc1` (stereo not given), for which the TGI in the experiment with M14 melanoma, in the experiment with M19-MEL melanoma, with HOP-92 NSCLC, in the experiment with U251 CNS, with LXFL 529 NSCLC and with COLO 205 colon was above 100 µM throughout. Besides, the TGI in the experiment with OVCAR-5 ovarian and with HOP-62 NSCLC was above 100 µM each time.
For `Cc1cc2c(=O)n(-c3ccc(F)cc3)c(C)nc2c(C(=O)O)c1C`, the TGI in the experiment with M14 melanoma, in the experiment with M19-MEL melanoma, with HOP-92 NSCLC, in the experiment with U251 CNS, in the experiment on SK-OV-3 ovarian and in the experiment with LXFL 529 NSCLC was above 100 µM throughout. In addition, the TGI in the experiment on COLO 205 colon, in the experiment on OVCAR-5 ovarian and in the experiment with HOP-62 NSCLC was above 100 µM each time.
As for `O=C(CO)CC(=O)C(=O)Nc1nc([N+](=O)[O-])cs1`, the TGI in the experiment on M14 melanoma, in the experiment with M19-MEL melanoma, in the experiment on U251 CNS, with SK-OV-3 ovarian, in the experiment on LXFL 529 NSCLC and with COLO 205 colon was above 100 µM in each case. Moreover, the TGI with OVCAR-5 ovarian and in the experiment with HOP-62 NSCLC was above 100 µM throughout.
